# Reference: patent publication US11180760B2, “Identification of molecular pathways and methods of use thereof for treating retinal neurodegeneration and other neurodegenerative disorders” (THE JOHNS HOPKINS UNIVERSITY, priority 2012, dated 2021)
# Tests used:
# primary RGCs = experiment: Primary RGC survival in neurotrophin-depleted media with kinase inhibitors (calcein AM)
# Description: To determine the neuroprotective effects of the broad-spectrum kinase inhibitors, sunitinib and VX680, primary RGCs were plated in neurotrophin-depleted media and stained with calcein AM at 72 hours in the absence (vehicle) or presence of 1 μM sunitinib (FIG. 1, Panel A).
# Retinas were isolated from postnatal 0-5-d mice and dissociated with papain. Microglia were immunodepleted with anti-CD11b conjugated Dynabeads (Life Technologies). The suspension of retinal cells was immunopanned on plates preconjugated with anti-Thy1.2 antibody (Serotec, MCA028) and goat antimouse IgM (Jackson Immunoresearch) at room temperature (RT). After washing, retinal ganglion cellS (RGCs) were released from the plate by a cell lifter, counted, and seeded at a density of 10,000 per well in 96-well plates in the media composed of Neurobasal (Life Technologies), B27, N2 supplement, Lglutamine, and penicillin/streptomycin. After a 72-h culture at 37° C., RGCs were stained with calceinAM (acetomethoxy derivate of calcein), ethidium homodimer, and Hoechst 33342. Images were taken from portions of each well with a Cellomics ArrayScan VTI HCS Reader (Thermo Fisher), and cell survival was quantified using the Cellomics Neuronal Profiling bioapplication. As indicated, RGC viability was alternatively measured by Cell-Titer-Glo (Promega) luminescence.
# RGCs = RGCs transfected with MAP3K12/MAP3K13 siRNA then plated in sunitinib or VX680, survival at 72 hours; format: cell-based, mice; settings: RGCs transfected with 10 nM siRNA against MAP3K12 and MAP3K13 alone or in combination, 0, 12, 37, 111, 333, 1000 nM drug (FIG. 3F)
# Description: RGCs were transfected with 10 nM siRNA against MAP3K12 and MAP3K13 alone or in combination and then plated in 0, 12, 37, 111, 333, and 1000 nM sunitinib (FIG. 3F on left) or VX680 (FIG. 3F on right). Survival at 72 hours is shown.
smiles,measurement,setting,value
Cc1cc(Nc2cc(N3CCN(C)CC3)nc(Sc3ccc(NC(=O)C4CC4)cc3)n2)n[nH]1 [VX680],survival of primary RGCs at higher doses,primary RGCs; at higher doses (FIG. 1B),greater number of viable cells
same,survival of primary RGCs in response to increasing doses,primary RGCs; increasing doses (FIG. 1B),neuroprotective
same,"cell viability, survival at 72 hours",RGCs,higher cell viability
